Experimental data taken from patent US8153630B2, “Kinase inhibitors” (Miikana Therapeutics, Inc., priority 2004, dated 2012).

What was measured:
[1] = biological target: T1, recombinant Aurora A (Homo sapiens, UniProt O14965); assay: PanVera Z'-Lyte Aurora kinase assay; format: biochemical; conditions: Z'-Lyte Ser/Thr 1 peptide 2 μM, ATP 10 μM, 1 h
T1 construct: purchased Upstate, Lake Placid, N.Y
T1 sequence (O14965 1-403): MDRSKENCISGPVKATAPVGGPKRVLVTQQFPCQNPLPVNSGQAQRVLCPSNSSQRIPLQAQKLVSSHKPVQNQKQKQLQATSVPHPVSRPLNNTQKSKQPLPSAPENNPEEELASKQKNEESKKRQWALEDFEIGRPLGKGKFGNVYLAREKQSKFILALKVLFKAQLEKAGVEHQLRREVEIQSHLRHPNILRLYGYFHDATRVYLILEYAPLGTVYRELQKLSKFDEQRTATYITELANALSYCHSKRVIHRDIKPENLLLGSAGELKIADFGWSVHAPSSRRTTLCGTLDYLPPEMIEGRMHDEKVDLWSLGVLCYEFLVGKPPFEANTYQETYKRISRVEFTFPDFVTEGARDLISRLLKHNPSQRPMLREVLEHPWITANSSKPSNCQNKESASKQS
Experimental: Compounds 7-14 above were tested for their potency against recombinant Aurora A (Upstate, Lake Placid, N.Y.) using the PanVera Z'-Lyte kinase assay kit—Ser/Thr 1 peptide (Invitrogen, Carlsbad, Calif.). Assays were carried out in kinase assay buffer (50 mM HEPES, pH 7.5, 10 mM MgCl2, 5 mM EGTA, 0.05% Brij-35, 2 mM DTT). Test compounds were initially dissolved in DMSO at 100× the highest tested concentration, then serially diluted to 4× test concentrations in kinase assay buffer. Next, Aurora A (final concentration 200-500 ng/mL), Z′-Lyte Ser/Thr 1 peptide (final concentration 2 μM) and ATP (final concentration 10 μM) were added according to the manufacturer's instructions. Assays were carried out in half-area 96-well white polystyrene assay plates (Corning, Corning, N.Y.) in a final volume of 20 μL. The reaction was allowed to proceed for 1 h at room temperature in the dark, at which point the development reagent and stop reagent were added according to the manufacturer's instructions. Coumarin (Ex. 400 nm, Em. 465 nm) and fluorescein (Ex. 400 nm, Em. 565 nm) fluorescence values were measured on a SpectraFluor Plus plate reader (Tecan, Durham, N.C.). The emission ratio (coumarin/fluorescein) was determined and used to calculate the percent phosphorylation for each well. Wells containing substrate but no kinase and wells containing a phosphopeptide control were used to set 0% and 100% phosphorylation values, respectively. Typically 20-40% of the substrate was phosphorylated in wells without inhibitor. Dose-response curves of relative Aurora A activity vs. inhibitor concentration were plotted with Grafit (Erithacus Software, Horley, Surrey, UK) and used to calculate IC50 values.

[2] = system: HCT 116 Cells; assay: Aurora kinase whole cell cytotoxicity assay: Sulforhodamine B; format: cell-based; conditions: Homo sapiens, HCT116, SRB staining, 96 hours incubation
Experimental: Human tumour-derived cell lines, HCT116 or MCF7 (ATCC) were plated in a 96 well plate in DMEM containing 10% fetal bovine serum and 2 mM L-glutamine at a density of 500 HCT116 cells or 1,000 MCF7 cells per well and incubated at 37° C., 5% CO2, for 24 hours prior to the addition of experimental compounds. Compounds were added using the dilution series indicated to duplicate plates and the cells were incubated in media plus compound for 96 hours. An additional plate was fixed in 10% TCA at the time of the addition of compound to provide a measurement of the cell population at time zero, the time of drug addition. Following the 96 hour incubation, cells were fixed in situ by gently aspirating off the culture media and then adding 50 ul of ice cold 10% TCA per well and incubation at 4° C. for 60 minutes. The plates were washed with tap water five times and allowed to air dry for 5 minute. 50 ul of a 0.4% (w/v) Sulforhodamine B solution in 1% (v/v) acetic acid was added per well and the cells were incubated for 30 minutes at room temperature. Following staining, plates were washed four times with 1% acetic acid to remove any unbound dye and then allowed to air dry for 5 minutes. The stain was solubilized with 100 ul of 10 mM Tris pH 10.5 per well and placed on an orbital rotator for 5 minutes. The absorbance was read at 570 nm. Percentage growth was calculated using the absorbance readings from the time zero plate (Tz) and the dilution series plate […] which included a column of cells grown in media without compound as a control (C) using the formulas: [(Ti−Tz)/(C−Tz)]×100 for concentrations for which Ti>/=Tz [(Ti−Tz)/Tz]×100 for concentrations for which Ti<Tz.
Three dose response parameters were calculated for each experimental agent. Growth inhibition of 50% (GI50) was calculated from [(Ti−Tz)/(C−Tz)]×100=50, which was the drug concentration resulting in a 50% reduction in the net protein increase (as measured by SRB staining) in control cells during the drug incubation. The drug concentration resulting in total growth inhibition (TGI) was calculated from Ti=Tz. The LC50 (concentration of drug resulting in a 50% reduction in the measured protein at the end of the drug treatment as compared to that at the beginning) indicating a net loss of cells following treatment ws calculated from [(Ti−Tz)/Tz]×100=−50. Values are calculated for each of these three parameters if the level of activity was reached; however, if the effect was not reached or was exceeded, the value for that parameter is expressed as greater or less than the maximum or minimum concentration tested.

Row | IC50 [1] [nM] | Structure (SMILES) | GI50 [2] [nM]
1 | < 100 | Cc1cc(Nc2nc(Sc3ccc(NC(=O)C4CC4)cc3)nc(C(=O)OCCN3CCCCC3)c2N)n[nH]1 [Compound 48, 2-Piperidin-1-ylethyl 2-(4-cyclopropanecarboxamidophenylsulfanyl)-5-amino-6-(5-methylpyrazol-3-ylamino)-4-pyrimidinecarboxylate] | 1000 to 10000
2 | < 100 | Cc1cc(Nc2nc(Sc3ccc(NC(=O)C4CC4)cc3)nc(C(=O)OC(C)C)c2N)n[nH]1 [Compound 49, Isopropyl 2-(4-cyclopropanecarboxamidophenylsulfanyl)-5-amino-6-(5-methylpyrazol-3-ylamino)-4-pyrimidinecarboxylate] | 100 to 1000
3 | < 100 | Cc1cc(Nc2nc(Sc3ccc(NC(=O)C4CC4)cc3)nc(C(=O)OCCO)c2N)n[nH]1 [Compound 50, 2-Hydroxyethyl 2-(4-cyclopropanecarboxamidophenylsulfanyl)-5-amino-6-(5-methylpyrazol-3-ylamino)-4-pyrimidinecarboxylate] | 1000 to 10000
4 | < 100 | Cc1cc(Nc2nc(Sc3ccc(NC(=O)C4CC4)cc3)nc(C(=O)Nc3ccncc3)c2N)n[nH]1 [Compound 51, N-Pyridin-4-yl 2-(4-cyclopropanecarboxamidophenylsulfanyl)-5-amino-6-(5-methylpyrazol-3-ylamino)-4-pyrimidinecarboxamide] | 1000 to 10000
5 | < 100 | Cc1cc(Nc2nc(Sc3ccc(NC(=O)C4CC4)cc3)nc(C(=O)N3CCCCC3)c2N)n[nH]1 [Compound 53, Piperidin-1-yl 2-(4-cyclopropanecarboxamidophenylsulfanyl)-5-amino-6-(5-methylpyrazol-3-ylamino)-4-pyrimidinecarboxamide] | 100 to 1000
6 | < 100 | Cc1cc(Nc2nc(Sc3ccc(NC(=O)C4CC4)cc3)nc(C(=O)NCC3CCCO3)c2N)n[nH]1 (centres unmarked) [Compound 54, N-(Tetrahydrofuran-2-ylmethyl) 2-(4-cyclopropanecarboxamidophenylsulfanyl)-5-amino-6-(5-methylpyrazol-3-ylamino)-4-pyrimidinecarboxamide] | 100 to 1000
7 | < 100 | COCCCNC(=O)c1nc(Sc2ccc(NC(=O)C3CC3)cc2)nc(Nc2cc(C)[nH]n2)c1N [Compound 55, N-(3-Methoxypropyl) 2-(4-cyclopropanecarboxamidophenylsulfanyl)-5-amino-6-(5-methylpyrazol-3-ylamino)-4-pyrimidinecarboxamide] | 100 to 1000
8 | < 100 | CSCCNC(=O)c1nc(Sc2ccc(NC(=O)C3CC3)cc2)nc(Nc2cc(C)[nH]n2)c1N [Compound 56, N-(2-Methylthioethyl) 2-(4-cyclopropanecarboxamidophenylsulfanyl)-5-amino-6-(5-methylpyrazol-3-ylamino)-4-pyrimidinecarboxamide] | 100 to 1000
9 | 100 to 1000 | Cc1cc(Nc2nc(Sc3ccc(NC(=O)C4CC4)cc3)nc(C(=O)NC(C)(C)C)c2N)n[nH]1 [Compound 57, N-(tert-Butyl) 2-(4-cyclopropanecarboxamidophenylsulfanyl)-5-amino-6-(5-methylpyrazol-3-ylamino)-4-pyrimidinecarboxamide] | 1000 to 10000
10 | < 100 | Cc1cc(Nc2nc(Sc3ccc(NC(=O)C4CC4)cc3)nc(C(=O)NCc3ccco3)c2N)n[nH]1 [Compound 58, N-(2-Furylmethyl) 2-(4-cyclopropanecarboxamidophenylsulfanyl)-5-amino-6-(5-methylpyrazol-3-ylamino)-4-pyrimidinecarboxamide] | 1000 to 10000
11 | < 100 | Cc1cc(Nc2nc(Sc3ccc(NC(=O)C4CC4)cc3)nc(C(=O)NCc3cccs3)c2N)n[nH]1 [Compound 59, N-(2-Thien-2-ylmethyl) 2-(4-cyclopropanecarboxamidophenylsulfanyl)-5-amino-6-(5-methylpyrazol-3-ylamino)-4-pyrimidinecarboxamide] | 1000 to 10000
12 | < 100 | COCC(C)NC(=O)c1nc(Sc2ccc(NC(=O)C3CC3)cc2)nc(Nc2cc(C)[nH]n2)c1N (centres unmarked) [Compound 61, N-(2-Methoxy-1-methylethyl) 2-(4-cyclopropanecarboxamidophenylsulfanyl)-5-amino-6-(5-methylpyrazol-3-ylamino)-4-pyrimidinecarboxamide] | 100 to 1000
13 | 100 to 1000 | Cc1cc(Nc2nc(Sc3ccc(NC(=O)C4CC4)cc3)nc(C(=O)NC3CCCCC3)c2N)n[nH]1 [Compound 62, N-Cyclohexyl 2-(4-cyclopropanecarboxamidophenylsulfanyl)-5-amino-6-(5-methylpyrazol-3-ylamino)-4-pyrimidinecarboxamide] | 1000 to 10000
14 | < 100 | Cc1cc(Nc2nc(Sc3ccc(NC(=O)C4CC4)cc3)nc(C(=O)NC3CCOCC3)c2N)n[nH]1 [Compound 63, N-Tetrahydro-2H-pyran-4-yl 2-(4-cyclopropanecarboxamidophenylsulfanyl)-5-amino-6-(5-methylpyrazol-3-ylamino)-4-pyrimidinecarboxamide] | 100 to 1000
15 | < 100 | Cc1cc(Nc2nc(Sc3ccc(NC(=O)C4CC4)cc3)nc(C(=O)NC3CCN(C)CC3)c2N)n[nH]1 [Compound 64, N-(1-Methylpiperidin-4-yl) 2-(4-cyclopropanecarboxamidophenylsulfanyl)-5-amino-6-(5-methylpyrazol-3-ylamino)-4-pyrimidinecarboxamide] | 100 to 1000
16 | < 100 | Cc1cc(Nc2nc(Sc3ccc(NC(=O)C4CC4)cc3)nc(C(=O)NCC(F)(F)F)c2N)n[nH]1 [Compound 65, N-(2,2,2-Trifluoroethyl) 2-(4-cyclopropanecarboxamidophenylsulfanyl)-5-amino-6-(5-methylpyrazol-3-ylamino)-4-pyrimidinecarboxamide] | 100 to 1000
17 | < 100 | Cc1cc(Nc2nc(Sc3ccc(NC(=O)C4CC4)cc3)nc(C(=O)OCc3ccccc3)c2N)n[nH]1 [Compound 66, Benzyl 2-(4-cyclopropanecarboxamidophenylsulfanyl)-5-amino-6-(5-methylpyrazol-3-ylamino)-4-pyrimidinecarboxylate] | 100 to 1000
18 | 100 to 1000 | Cc1cc(Nc2nc(Sc3ccc(NC(=O)C4CC4)cc3)nc(C(=O)OCC[Si](C)(C)C)c2N)n[nH]1 [Compound 67] | 1000 to 10000
19 | 1000 to 10000 | Cc1cc(Nc2nc(Sc3ccc(NC(=O)C4CC4)cc3)nc(C(=O)N3CCN(C)CC3)c2N)n[nH]1 [Compound 68] | 1000 to 10000
